Like-named read-outs stand apart in the source and are kept apart here.
Key:
[1] = test system: HgmTad2; format: binding, Bacteroides phages (human gut metagenomic libraries)
[2] = target: CmTad1 (Clostridioides mangenotii, UniProt P0DW61); format: binding, Clostridioides mangenotii prophage; settings: for binding to CmTad1 in words: among the CDNs tested
[3] = test system: ColiTad1; format: binding, Colidexitribacter sp. OB.20; settings: native gel combined with ITC
[4] = target: T1, SBS Tad1 (Bacillus phage SBSphiJ7, UniProt P0DW57); assay: biochemical; format: binding, Bacillus cereus phage SBSphiJ7
T1 sequence (P0DW57 whole entry, looked up): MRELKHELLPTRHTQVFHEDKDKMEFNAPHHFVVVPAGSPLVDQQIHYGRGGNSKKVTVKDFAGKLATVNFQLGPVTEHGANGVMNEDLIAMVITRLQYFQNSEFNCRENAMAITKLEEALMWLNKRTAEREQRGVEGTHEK

[5] = target: SPO1 Tad2 (Bacillus phage SP01, UniProt B6V311); format: binding, Bacillus cereus phage SPO1; settings: HPLC; 40 μM protein, 4 μM ligand
Chain of SPO1 Tad2 (B6V311 whole entry, looked up): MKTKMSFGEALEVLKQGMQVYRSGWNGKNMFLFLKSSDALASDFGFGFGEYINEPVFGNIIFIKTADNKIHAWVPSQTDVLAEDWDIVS

[6] = test system: HgmTad2; format: binding, Bacteroides phages (human gut metagenomic libraries); settings: HPLC; HgmTad2 of State 1; 40 μM protein, 4 μM ligand
[7] = target: T1, SBS Tad1; format: binding, Bacillus cereus phage SBSphiJ7; settings: native gel combined with ITC
[8] = native PAGE, HgmTad2 of State 1

Chain of CmTad1 (P0DW61 whole entry): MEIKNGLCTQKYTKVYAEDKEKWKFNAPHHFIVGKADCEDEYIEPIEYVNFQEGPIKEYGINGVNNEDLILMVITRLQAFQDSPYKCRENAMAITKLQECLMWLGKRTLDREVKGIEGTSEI

## Nc1ncnc2c1ncn2[C@@H]1O[C@@H]2COP(=O)(O)OP(=O)(O)OC[C@H]3OC(O[C@@H]1[C@@H]2O)[C@H](O)[C@@H]3O [1''-2' gcADPR]
[1]; native gel, purified HgmTad2 in all the three states
  native gel shift of HgmTad2 upon adding ligand: shift

## Nc1nc2c(ncn2[C@@H]2O[C@@H]3COP(=O)(O)O[C@H]4[C@@H](O)[C@H](n5cnc6c(N)ncnc65)O[C@@H]4COP(=O)(O)O[C@H]4[C@@H](O)[C@H](n5cnc6c(N)ncnc65)O[C@@H]4COP(=O)(O)O[C@H]3[C@H]2O)c(=O)[nH]1 [cAAG]
[2]; native PAGE, protein 20 μM
  native gel shift of CmTad1 upon adding ligand: shift

## Nc1nc2c(ncn2[C@@H]2O[C@@H]3COP(=O)(O)O[C@H]4[C@@H](O)[C@H](n5cnc6c(N)ncnc65)O[C@@H]4COP(=O)(O)O[C@@H]2[C@@H]3O)c(=O)[nH]1 [2',3'-cGAMP]
[3]
  binding affinity to ColiTad1 in words: high affinity

## Nc1nc2c(ncn2[C@@H]2O[C@@H]3COP(=O)(O)O[C@H]4[C@@H](O)[C@H](n5cnc6c(=O)[nH]c(N)nc65)O[C@@H]4COP(=O)(O)O[C@H]3[C@H]2O)c(=O)[nH]1 [cGG, 3’,3’-cyclic di-GMP]
[1]; [8]
  native gel shift of HgmTad2 upon adding ligand: significant shift

## Nc1ncnc2c1ncn2[C@@H]1O[C@@H]2COP(=O)(O)O[C@H]3[C@@H](O)[C@H](n4ccc(=O)[nH]c4=O)O[C@@H]3COP(=O)(O)O[C@H]2[C@H]1O [cUA]
[2]
  binding to CmTad1 in words: weak binding
[4]
  Kd: 53.9 nM

## Nc1nc2c(ncn2[C@@H]2O[C@@H]3COP(=O)(O)O[C@H]4[C@@H](O)[C@H](n5cnc6c(N)ncnc65)O[C@@H]4COP(=O)(O)O[C@H]3[C@H]2O)c(=O)[nH]1 [3',3'-cGAMP]
[3]
  binding affinity to ColiTad1 in words: low affinity
[2]
  binding to CmTad1 in words: weak binding
[5]
  depletion of ligand after incubation with SPO1 Tad2: does not deplete
[6]
  depletion of ligand after incubation with HgmTad2: depletes
[4]
  Kd: 48.7 nM
[1]; [8]
  native gel shift of HgmTad2 upon adding ligand: significant shift

## Nc1nc2c(ncn2[C@@H]2O[C@@H]3COP(=O)(O)O[C@@H]4[C@H](O)[C@@H](COP(=O)(O)O[C@H]3[C@H]2O)O[C@H]4n2cnc3c(N)ncnc32)c(=O)[nH]1 [3',2'-cGAMP]
[3]
  binding affinity to ColiTad1 in words: low affinity
[7]
  binding affinity to SBS Tad1 in words: low affinity

## Nc1nc2c(ncn2[C@@H]2O[C@@H]3COP(=O)(O)O[C@H]4[C@@H](O)[C@H](n5ccc(=O)[nH]c5=O)O[C@@H]4COP(=O)(O)O[C@H]3[C@H]2O)c(=O)[nH]1 [cUG]
[1]; [8]
  native gel shift of HgmTad2 upon adding ligand: significant shift

— paper PMC10680739 (bioRxiv, 2023)
